Test results: patent US20160346249A1 (priority 2012, published 2016)

Test: Single dose 300 mg / 450 mg pharmacokinetic, safety and tolerability study in healthy male and female subjects
Conditions: for Tmax / half-life / AUC(0-inf) / AUC(0-t) / Cmax / MRT inf / CL renal: human, po; for Tmax / half-life / AUC(0-inf) / AUC(0-t) / Cmax / MRT inf: plasma; for CL renal: urine and plasma, renal clearance; for CL renal / Percent of Dose in Urine (0-24 hr): Mean (SD)
[1] = single oral 300 mg DOV 21,947 HCl IR, Female, N = 5
[2] = single oral 300 mg DOV 21,947 HCl IR, Male, N = 5
[3] = single oral 300 mg DOV 21,947 HCl IR, mean, N = 10
[4] = single oral 450 mg DOV 21,947 HCl IR, Female, N = 5
[5] = single oral 450 mg DOV 21,947 HCl IR, Male, N = 5

Source text: Fourteen subjects, divided equally between males and females, were enrolled in the study and randomized between test article (5/sex) and placebo (2/sex). […] All subjects met the inclusion and exclusion criteria for entry into the study as detailed in the protocol and signed an informed consent form.
The subjects were confined to the clinical study site from Day −1 to the morning of Day 2, when they underwent a brief physical examination, clinical laboratory tests, and a physician visit before they were discharged. On Day 7, they reported to the clinical site again and were confined to the site until the morning of Day 9. At that time, they underwent a complete physical examination, clinical laboratory tests, and a physician's visit before they were discharged from the study. All subjects were fasted overnight on Days −1 and 7 from approximately 22:00 to approximately 4 hours post-dose on Days 1 and 8, at which time they received a standard lunch.
Subjects that received the placebo (2/sex) ingested six identical looking capsules with no drug. […] Capsules on both days were ingested with 240 mL water. […] Samples were collected into lithium heparin-containing Vacutainers® and centrifuged at approximately 3000 rpm to obtain the plasma fraction. The plasma was split into two polypropylene tubes and stored at −20° C. […] The urine volumes were recorded and an aliquot was stored for drug concentration measurements.
Validated LC/MS/MS assays were used for analyses; the assay range for both analytes in plasma and urine were 5.00 to 2000 ng/mL.
Plasma concentration-time data for each subject were analyzed with WinNonlin, version 4.1 (Pharsight Corporation, Mountain View, Calif.) using a non-compartmental model. […] Plasma concentrations listed as not detected (ND) or below the lower limit of quantitation (LLOQ) were set to zero. The values of Cmax and Tmax were the observed values for each subject. AUC0-t was determined using the linear trapezoidal rule whenever the concentration data were increasing and the logarithmic trapezoidal rule any time that the concentration data were decreasing. The apparent λz was calculated as the negative slope of the log-linear terminal portion of the blood concentration-time curve using linear regression. To allow for accurate calculation of λz, a minimum of three observations, selected by WinNonlin, was used. The t½ was calculated as ln 2/λz. AUC0-t was extrapolated to infinity (AUC0-∞) as follows: AUC0-∞=AUC0-t+Clast/λz where Clast is the last quantifiable concentration. The apparent oral clearance (CL/F) was calculated as Dose/AUC0-∞. The apparent oral volume of distribution (Vz/F) was calculated as Dose/λz×AUC0-∞. The mean residence time from time zero to infinity (MRT0-∞) was calculated as AUMC0-∞/AUC0-∞.

With Clc1ccc([C@]23CNC[C@H]2C3)cc1Cl [amitifadine, (+)-1-(3,4-dichlorophenyl)-3-azabicyclo[3.1.0]hexane] the Tmax (both, 300 mg) was 2.15 h, the half-life (both, 300 mg, t½ (Harmonic mean), single oral 300 mg DOV 21,947 HCl IR, N = 10) was 4.2 h and the half-life (both, 300 mg, t½, single oral 300 mg DOV 21,947 HCl IR, arithmetic mean, N = 10) was 4.24 h. For the same compound, the AUC(0-inf) (both, 450 mg) was 30500 ng·h/mL, the AUC(0-t) (both, 450 mg) was 30000 ng·h/mL and the Cmax (both, 450 mg) was 5110 ng/mL. The MRT inf (both, 450 mg) was 6.39 h, the Tmax (both, 450 mg) was 2.43 h and the half-life (both, 450 mg, t½ (Harmonic mean), single oral 450 mg DOV 21,947 HCl IR, N = 10) was 3.77 h. The half-life (both, 450 mg, t½, single oral 450 mg DOV 21,947 HCl IR, arithmetic mean, N = 10) was 3.82 h, the CL renal (both, 300 mg, 300 mg single oral dose) was 0.943 mL/min and the CL renal (both, 450 mg, 450 mg single oral dose) was 0.647 mL/min. It also gave an AUC(0-inf) (female, 300 mg) of 20500 ng·h/mL, an AUC(0-t) (female, 300 mg) of 20100 ng·h/mL and a Cmax (female, 300 mg) of 3260 ng/mL. The MRT inf (female, 300 mg) was 6.51 h, the Tmax (female, 300 mg) was 2.7 h and the half-life (female, 300 mg, t½ (Harmonic mean), single oral 300 mg DOV 21,947 HCl IR, N = 5) was 4.1 h. It also gave a half-life (female, 300 mg, t½, single oral 300 mg DOV 21,947 HCl IR, N = 5, arithmetic mean) of 4.14 h, an AUC(0-inf) (female, 450 mg) of 29900 ng·h/mL and an AUC(0-t) (female, 450 mg) of 29500 ng·h/mL. For the same compound, the Cmax (female, 450 mg) was 4540 ng/mL, the MRT inf (female, 450 mg) was 6.42 h and the Tmax (female, 450 mg) was 3 h. It also gave a half-life (female, 450 mg, t½ (Harmonic mean), single oral 450 mg DOV 21,947 HCl IR, N = 5) of 3.57 h, a half-life (female, 450 mg, t½, single oral 450 mg DOV 21,947 HCl IR, N = 5, arithmetic mean) of 3.58 h and an AUC(0-inf) (male, 300 mg) of 19000 ng·h/mL. The AUC(0-t) (male, 300 mg) was 18600 ng·h/mL, the Cmax (male, 300 mg) was 3480 ng/mL and the MRT inf (male, 300 mg) was 6.07 h. It also gave a Tmax (male, 300 mg) of 1.6 h, a half-life (male, 300 mg, t½ (Harmonic mean), single oral 300 mg DOV 21,947 HCl IR, N = 5) of 4.31 h and a half-life (male, 300 mg, t½, single oral 300 mg DOV 21,947 HCl IR, N = 5, arithmetic mean) of 4.34 h. It also gave an AUC(0-inf) (male, 450 mg) of 31100 ng·h/mL, an AUC(0-t) (male, 450 mg) of 30500 ng·h/mL and a Cmax (male, 450 mg) of 5680 ng/mL. It also gave an MRT inf (male, 450 mg) of 6.35 h, a Tmax (male, 450 mg) of 1.85 h and a half-life (male, 450 mg, t½ (Harmonic mean), single oral 450 mg DOV 21,947 HCl IR, N = 5) of 4 h. The half-life (male, 450 mg, t½, single oral 450 mg DOV 21,947 HCl IR, N = 5, arithmetic mean) was 4.06 h, the CL/F [1] was 13.0 L/h and the λz [1] was 0.169 h⁻¹. The CL/F [2] was 14.2 L/h, the λz [2] was 0.161 h⁻¹ and the “Percent of Dose in Urine (0-24 hr)” value (single oral 300 mg DOV 21,947 HCl IR) was 0.411 (0.121) Percent of Dose. For the same compound, the “Mean Amount in Urine” value (single oral 300 mg DOV 21,947 HCl IR, Period 0-1 hr) was 17.0 µg, the “Mean Amount in Urine” value (single oral 300 mg DOV 21,947 HCl IR, Period 1-2 hr) was 115 µg and the “Mean Amount in Urine” value (single oral 300 mg DOV 21,947 HCl IR, Period 2-4 hr) was 279 µg. For the same compound, the “Mean Amount in Urine” value (single oral 300 mg DOV 21,947 HCl IR, Period 4-8 hr) was 371 µg, the “Mean Amount in Urine” value (single oral 300 mg DOV 21,947 HCl IR, Period 8-12 hr) was 137 µg and the “Mean Amount in Urine” value (single oral 300 mg DOV 21,947 HCl IR, Period 12-24 hr) was 115 µg. The “Mean Amount in Urine” value (single oral 300 mg DOV 21,947 HCl IR, Total (0-24 hr)) was 1064 µg, the CL/F [3] was 13.6 L/h and the λz [3] was 0.165 h⁻¹. The CL/F [4] was 13.7 L/h, the λz [4] was 0.194 h⁻¹ and the CL/F [5] was 12.8 L/h. The λz [5] was 0.173 h⁻¹, the “Percent of Dose in Urine (0-24 hr)” value (single oral 450 mg DOV 21,947 HCl IR) was 0.299 (0.143) Percent of Dose and the “Mean Amount in Urine” value (single oral 450 mg DOV 21,947 HCl IR, Period 0-1 hr) was 9.4 µg. The “Mean Amount in Urine” value (single oral 450 mg DOV 21,947 HCl IR, Period 1-2 hr) was 66.3 µg, the “Mean Amount in Urine” value (single oral 450 mg DOV 21,947 HCl IR, Period 2-4 hr) was 322 µg and the “Mean Amount in Urine” value (single oral 450 mg DOV 21,947 HCl IR, Period 4-8 hr) was 402 µg. The “Mean Amount in Urine” value (single oral 450 mg DOV 21,947 HCl IR, Period 8-12 hr) was 195 µg, the “Mean Amount in Urine” value (single oral 450 mg DOV 21,947 HCl IR, Period 12-24 hr) was 164 µg and the “Mean Amount in Urine” value (single oral 450 mg DOV 21,947 HCl IR, Total (0-24 hr)) was 1159 µg. For the same compound, the λz (single oral 450 mg DOV 21,947 HCl IR, mean, N = 10) was 0.184 h⁻¹.
